Assay results from patent US12509421B2, “Preparation and application of deuterated 4-phenyl-4-piperidinols” (priority 2022, dated 2025).
pIC50: −log10 of the molar value. Entries after “also recorded” stand apart in the source; their conditions may differ. Like-named read-outs stand apart in the source and are kept apart here.

Experiments:
[1] = target: T1, hERG potassium channel (Homo sapiens, UniProt Q12809); conditions: read-out: hERG IC50; J Med Chem.2013 24; 56 (20): 8019-31; cited from earlier work
T1 sequence (Q12809 whole entry): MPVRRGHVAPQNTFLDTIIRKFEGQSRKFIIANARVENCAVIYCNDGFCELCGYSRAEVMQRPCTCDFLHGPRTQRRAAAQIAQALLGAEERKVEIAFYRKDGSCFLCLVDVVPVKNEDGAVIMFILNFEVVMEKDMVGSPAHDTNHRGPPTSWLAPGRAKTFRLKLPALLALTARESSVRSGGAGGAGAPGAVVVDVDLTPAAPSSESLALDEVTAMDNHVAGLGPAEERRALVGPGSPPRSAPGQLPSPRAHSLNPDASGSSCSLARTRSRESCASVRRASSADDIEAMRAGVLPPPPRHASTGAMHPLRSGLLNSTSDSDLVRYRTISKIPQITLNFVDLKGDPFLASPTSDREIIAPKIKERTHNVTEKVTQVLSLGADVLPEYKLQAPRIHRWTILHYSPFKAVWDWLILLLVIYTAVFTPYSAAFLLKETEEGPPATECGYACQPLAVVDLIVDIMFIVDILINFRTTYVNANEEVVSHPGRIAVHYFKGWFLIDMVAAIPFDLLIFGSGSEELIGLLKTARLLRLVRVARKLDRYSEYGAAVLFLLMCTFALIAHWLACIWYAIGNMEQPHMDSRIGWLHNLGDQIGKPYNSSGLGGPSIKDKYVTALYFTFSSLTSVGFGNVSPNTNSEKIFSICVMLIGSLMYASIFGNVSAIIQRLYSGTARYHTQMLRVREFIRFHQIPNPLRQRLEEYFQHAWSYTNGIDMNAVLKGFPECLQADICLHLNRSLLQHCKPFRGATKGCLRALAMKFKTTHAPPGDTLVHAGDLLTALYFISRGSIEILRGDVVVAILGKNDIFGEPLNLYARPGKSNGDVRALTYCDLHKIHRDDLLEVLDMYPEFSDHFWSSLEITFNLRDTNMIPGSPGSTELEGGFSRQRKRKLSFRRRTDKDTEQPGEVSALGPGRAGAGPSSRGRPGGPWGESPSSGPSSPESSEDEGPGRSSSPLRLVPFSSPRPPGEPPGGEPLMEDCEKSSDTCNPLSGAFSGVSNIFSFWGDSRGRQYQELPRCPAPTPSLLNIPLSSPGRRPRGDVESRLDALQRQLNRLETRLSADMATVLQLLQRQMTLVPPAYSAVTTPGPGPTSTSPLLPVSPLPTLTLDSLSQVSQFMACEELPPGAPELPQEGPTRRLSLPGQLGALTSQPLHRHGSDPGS

[2] = target: T1, hERG potassium channel; assay: hERG potassium channel whole-cell patch clamp (HEK293); type: cell-based; parameters: expressed in transfected cells; host or cells: HEK293 cell line
Description: The rapidly activated potassium channel encoded by human ether-a-go-go-related gene (hERG) is an important ion channel involved in the formation of phase 3 repolarization of myocardial action potential. […] Drug-induced delayed ventricular repolarization may cause fatal arrhythmia-torsade de pointes in some cases. According to statistics, about 25-40% of the lead compounds show different degrees of hERG-related toxicity, and many drugs are withdrawn from the market because they may lead to the risk of QT interval extension. At present, National Medical Products Administration also requires hERG/IKr safety evaluation data before clinical trial application (IND) of new drugs under study. • 1. Whole-cell patch clamp technique is used to study the inhibitory effect of compounds on hERG potassium channels: • 1) the compound to be tested is stored with physiological saline prepared into 10 mM liquid. The test stock solution is diluted with physiological saline into 3 mM, 1 mM and 0.3 mM diluents in turn. […] The old culture medium removed and is washed once with PBS, then added with 1 mL TrypLE™ Express solution and incubated at 37° C. for about 0.5 minutes. When the cells are detached from the bottom of the dish, about 5 ml complete medium preheated is added at 37° C. The cell suspension is gently blown with a straw to separate the aggregated cells. The cell suspension is transferred to a sterile centrifuge tube and centrifuged at 1000 rpm for 5 minutes to collect cells. […] The clamping voltage is depolarized from −80 mV to −50 mV for 0.5 seconds (as leakage current detection), then stepped to 30 mV for 2.5 seconds, and then quickly recovered to −50 mV for 4 seconds, which can excite the tail current of hERG channel. Data are collected repeatedly every 10s to observe the effect of drugs on hERG tail current. 0.5 seconds-50 mV stimulation is used as leakage current detection. The test data are collected by IPA amplifier (Sutter Instrument) and stored in SutterPatch software.
Capillary glass tube is drawn into recording electrode by microelectrode drawing instrument. Under the inverted microscope, the microelectrode manipulator is operated to contact the recording electrode with the cell, and negative pressure suction is given to form a GΩ seal. After the GΩ seal is formed, rapid capacitance compensation is carried out, and then negative pressure is continuously applied to break the cell membrane, forming a whole cell recording mode. Then the slow capacitance is compensated and the film capacitance and series resistance are recorded. No leakage compensation is given.
When the hERG current recorded in the whole cell is stable, the drug is administered, and the next concentration is detected after each drug concentration acts for 5 minutes (or the current is stable), and multiple concentrations are detected for each test compound. The cover glass covered with cells is placed in the recording bath in an inverted microscope, and the test compound and the external liquid containing no compound flowed through the recording bath from low concentration to high concentration by gravity perfusion method, so as to act on the cells, and liquid exchange is carried out by using a vacuum pump during recording. The current detected by each cell in the external fluid without compounds is used as its own control group.
At least two cells are used to detect each concentration independently and repeatedly twice. All electrophysiological tests are conducted at room temperature.
Firstly, the current after each drug concentration and the blank control current are standardized
[formula] followed by the calculation of the inhibition rate
[formula] corresponding to each drug concentration, the average and standard deviation for each concentration, and the semi-inhibition concentration of each compound with the following equation: […]
The dose-dependent effect is nonlinear fitted by the above equation, and IC50 is semi-inhibitory concentration.

[3] = Metabolic stability in liver microsomes, mouse; conditions: mouse, microsomes, pH 7.4
Experimental: (§1) The solution B is slowly dropped into solution A, and the pH is adjusted to 7.40±0.05.
(§2) • Control drug: 4 μL Verapamil solution (10 mM) is added with 96 μL DMSO and diluted to 400 μM; • Compound to be tested: 4 μL compound to be tested (10 mM) is added with 96 μL normal saline and diluted to 400 μM.
(§3) The microsomes are stored in the refrigerator at −80° C., thawed at room temperature after being taken out, and mixed gently.
(§4) […] PBS (100 mm, pH=7.4) solution is added to the negative sample. The solution is put into water bath at 37° C. and pre-incubated for 10 minutes; • B) After incubation, 2 μL reference drug or compound to be tested (400 μM) are added into each well to start the reaction.

[4] = target: CYP 2D6 (Homo sapiens, UniProt P10635); assay: Inhibition of cytochrome P450 enzyme in human liver microsomes, CYP 2D6
Sequence of CYP 2D6 (P10635 whole entry): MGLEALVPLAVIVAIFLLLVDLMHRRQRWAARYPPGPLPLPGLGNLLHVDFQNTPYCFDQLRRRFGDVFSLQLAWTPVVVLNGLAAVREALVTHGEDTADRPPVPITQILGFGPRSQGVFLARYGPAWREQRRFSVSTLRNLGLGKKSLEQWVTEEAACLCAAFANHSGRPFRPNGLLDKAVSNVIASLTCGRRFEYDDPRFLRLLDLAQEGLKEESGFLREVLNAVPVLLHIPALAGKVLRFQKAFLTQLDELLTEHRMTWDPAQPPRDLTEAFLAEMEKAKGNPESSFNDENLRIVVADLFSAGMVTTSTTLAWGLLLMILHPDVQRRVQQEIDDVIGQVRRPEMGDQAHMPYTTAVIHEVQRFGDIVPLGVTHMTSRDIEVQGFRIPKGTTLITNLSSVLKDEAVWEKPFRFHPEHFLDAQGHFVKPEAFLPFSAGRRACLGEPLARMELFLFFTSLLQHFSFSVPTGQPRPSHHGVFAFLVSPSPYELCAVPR

[5] = Metabolic stability in liver microsomes, dog; conditions: dog, microsomes, pH 7.4
Experimental: as §1, §2, §3, §4

[6] = Metabolic stability in liver microsomes, human; conditions: human, microsomes, pH 7.4
Experimental: as §1, §2, §3, §4

[7] = Metabolic stability in liver microsomes, rat; conditions: rat, microsomes, pH 7.4
Experimental: as §1, §2, §3, §4

[8] = target: CYP 2C19 (Homo sapiens, UniProt P33261); assay: Inhibition of cytochrome P450 enzyme in human liver microsomes, CYP 2C19
Sequence of CYP 2C19 (P33261 whole entry): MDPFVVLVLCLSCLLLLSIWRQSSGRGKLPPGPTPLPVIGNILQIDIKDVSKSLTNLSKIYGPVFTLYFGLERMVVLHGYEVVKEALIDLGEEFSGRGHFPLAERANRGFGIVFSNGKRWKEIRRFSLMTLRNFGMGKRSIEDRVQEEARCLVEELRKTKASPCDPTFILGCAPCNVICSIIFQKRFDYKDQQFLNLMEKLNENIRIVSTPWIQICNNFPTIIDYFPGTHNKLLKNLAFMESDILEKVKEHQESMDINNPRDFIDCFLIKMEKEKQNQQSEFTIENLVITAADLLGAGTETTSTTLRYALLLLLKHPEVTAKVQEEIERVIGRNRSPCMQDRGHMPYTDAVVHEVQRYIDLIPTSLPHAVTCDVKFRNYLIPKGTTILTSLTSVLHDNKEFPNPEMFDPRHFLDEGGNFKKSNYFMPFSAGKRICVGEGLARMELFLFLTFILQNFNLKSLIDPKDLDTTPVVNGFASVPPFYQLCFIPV

[9] = target: CYP 2C9 (Homo sapiens, UniProt P11712); assay: Inhibition of cytochrome P450 enzyme in human liver microsomes, CYP 2C9
Sequence of CYP 2C9 (P11712 whole entry): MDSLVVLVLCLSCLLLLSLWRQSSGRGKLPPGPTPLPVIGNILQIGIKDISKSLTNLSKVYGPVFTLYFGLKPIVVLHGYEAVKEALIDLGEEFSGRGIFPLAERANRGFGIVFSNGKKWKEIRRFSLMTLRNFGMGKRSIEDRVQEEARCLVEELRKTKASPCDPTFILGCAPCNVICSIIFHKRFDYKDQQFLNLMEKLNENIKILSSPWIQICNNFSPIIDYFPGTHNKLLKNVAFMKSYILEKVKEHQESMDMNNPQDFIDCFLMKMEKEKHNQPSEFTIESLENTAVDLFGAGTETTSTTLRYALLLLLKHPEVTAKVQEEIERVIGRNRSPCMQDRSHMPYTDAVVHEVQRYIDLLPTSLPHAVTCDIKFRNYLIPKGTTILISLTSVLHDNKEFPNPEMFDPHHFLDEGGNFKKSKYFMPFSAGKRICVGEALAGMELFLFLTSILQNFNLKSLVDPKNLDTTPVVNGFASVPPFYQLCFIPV

COc1ccsc1CNCC[C@@]1(c2ccccn2)CCOC2(CCCC2)C1 [TRV-130, reference compound]
pIC50 [1]: 5.21 | pIC50 [2]: 5.21 | hERG inhibition grade [2]: moderate inhibitory effects on hERG; also recorded: μM(Moderate intensity inhibition) | half-life at 2 μM [3]: 1.67 min | microsomal CLint at 2 μM [3]: 831 µL/min/mg | pIC50 [4]: 5.14 | half-life at 2 μM [5]: 2.22 min | microsomal CLint at 2 μM [5]: 624 µL/min/mg | half-life at 2 μM [6]: 4.08 min | microsomal CLint at 2 μM [6]: 340 µL/min/mg | half-life at 2 μM [7]: 1.61 min | microsomal CLint at 2 μM [7]: 863 µL/min/mg | pIC50 [8]: < 4.30 | pIC50 [9]: < 4.30
